Values joined by “and” are separate entries in the source; they are usually repeats but may differ in a detail not shown here. Equal values may be shown once.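 Dose response: 5 concentrations. Exposure: 48 h. Format: 96-well plates. Endpoint: linear interpolation; highest concentration if not reached. The concentration for 50% growth inhibition is given as GI50. At the TGI there is no net growth.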
Legend:
Assay in all cases: NCI tumour cell line growth inhibition, 48 h
786-0 renal = test system: 786-0 renal
CCRF-CEM leukemia = test system: CCRF-CEM leukemia
EKVX NSCLC = test system: EKVX NSCLC
IGROV1 ovarian = test system: IGROV1 ovarian
MALME-3M melanoma = test system: MALME-3M melanoma
SK-MEL-2 melanoma = test system: SK-MEL-2 melanoma
SK-MEL-5 melanoma = test system: SK-MEL-5 melanoma
SNB-19 CNS = test system: SNB-19 CNS
T-47D breast = test system: T-47D breast
UACC-257 melanoma = test system: UACC-257 melanoma

Structure (SMILES) | TGI (786-0 renal) | TGI (CCRF-CEM leukemia) [µM] | TGI (EKVX NSCLC) [µM] | TGI (IGROV1 ovarian) [µM] | TGI (MALME-3M melanoma) [µM] | TGI (SK-MEL-2 melanoma) [µM] | TGI (SK-MEL-5 melanoma) [µM] | TGI (SNB-19 CNS) [µM] | TGI (T-47D breast) [µM] | TGI (UACC-257 melanoma) [µM] | GI50 (786-0 renal) | GI50 (CCRF-CEM leukemia) [µM] | GI50 (EKVX NSCLC) [µM] | GI50 (IGROV1 ovarian) [µM] | GI50 (MALME-3M melanoma) [µM] | GI50 (SK-MEL-2 melanoma) [µM] | GI50 (SK-MEL-5 melanoma) [µM] | GI50 (SNB-19 CNS) [µM] | GI50 (T-47D breast) [µM] | GI50 (UACC-257 melanoma) [µM]
Nc1nc(-c2cccnc2)cc(-c2cc(-c3cccnc3)nc(N)n2)n1 | > 100 µM | > 100 | > 100 | > 100 | > 100 | > 100 | > 100 | > 100 | > 100 | > 100 | – | – | – | – | – | – | – | – | – | –
CCOc1ccc(-c2nc3ccc(-c4nc5ccc(N6CCN(C)CC6)cc5[nH]4)cc3[nH]2)cc1 | 1.57 µM and 0.809 µM | 1.87 | 3.1 | 2.44 | 0.551 | 2.49 | 1.42 | 1.73 | 2.2 | – | 0.527 µM and 0.198 µM | 0.316 | 0.658 | 0.514 | 0.0329 | 1.07 | 0.0761 | 0.448 | 0.299 | –
Nc1nc(Sc2ccc([N+](=O)[O-])c3nonc23)c2ncn(C3OC(CO)C(O)C3O)c2n1 (stereo unspecified) | 14.2 µM | 6.65 | > 49.8 | 24.2 | > 42.1 | 8.81 | > 22.4 | > 100 | > 49.5 | > 44.8 | 0.766 µM | 0.198 | 2.88 | 2.58 | 9.8 | 0.393 | 2.4 | > 63.5 | 1.07 | –
NC(=O)c1cn(C2CC(O)C(CO)O2)c2ncnc(N)c12 (stereo unspecified) | 18.9 µM | > 100 | > 23.2 | 5.16 | – | > 28.2 | 31.9 | 45.5 | 1.82 | > 63.4 | 4.15 µM | 0.0888 | 1.92 | 0.749 | 0.763 | 10.5 | 5.42 | 7 | 0.0549 | 11
CCOC(=O)c1c(NN2CCN(CC(F)(F)F)CC2)oc(/C=C2\C=Nc3ncccc32)c1O | 18.8 µM | > 100 | 33.2 | 47.8 | 29.4 | 4.8 | 10.6 | > 100 | 34.8 | 25.1 | 3.13 µM | 6.81 | 11.1 | 7.43 | 13 | 2.25 | 2.55 | 20.7 | 5.08 | 6.45
Cn1cnc([N+](=O)[O-])c1S(=O)(=O)Oc1ccc(Cl)cc1 | 33 µM | 7.05 | 49.6 | 5.58 | 4.15 | 61.1 | 32.3 | > 100 | 6.3 | 16.6 | 17 µM | 2.33 | 19.1 | 2.14 | 1.99 | 18.7 | 15.7 | > 100 | 2.21 | 3.59
O=C(Nc1ccc(Cl)c(C(F)(F)F)c1)Nc1ccc(-c2cccnc2)cc1N1CCC(CO)CC1 | 4.52 µM | > 100 | > 100 | > 100 | 7.36 | 4.34 | 3.12 | > 100 | 7.76 | 9.82 | 1.84 µM | 2.9 | 1.72 | 3.48 | 2.27 | 1.86 | 1.63 | 3.89 | 2.09 | 3.47
CC(C)(C)c1cc(C[P+](c2ccccc2)(c2ccccc2)c2ccccc2)cc(C(C)(C)C)c1O | 9.73 µM | 5.33 | – | 7.46 | 0.947 | 0.585 | 0.716 | 13.8 | 1.01 | 0.684 | 1.81 µM | 0.545 | – | 0.437 | 0.291 | 0.257 | 0.244 | 0.354 | 0.2 | 0.227
COc1ccc2c(n1)Sc1nc3ccccc3nc1N2 | > 100 µM | > 100 | 60.3 | > 100 | > 100 | > 100 | > 100 | > 100 | > 100 | > 100 | – | – | – | – | – | – | – | – | – | –
CCCCCCCCCCCCCCCCn1cc[n+](C)c1 | 1.91 µM | 0.512 | 1.96 | 0.517 | 1.51 | – | – | 2 | – | – | 0.5 µM | 0.139 | 0.422 | 0.201 | 0.357 | – | – | 0.705 | 0.398 | –
COc1cc2c3c(n(CCCN=[N+]=[N-])c(=O)c2cc1OC)-c1ccc(F)cc1C3=O | 14.7 µM | 5.79 | > 100 | – | > 100 | > 100 | 17.9 | > 100 | > 100 | > 100 | 2.88 µM | 1.99 | 89.4 | – | > 100 | > 100 | 4.25 | 4.35 | 3.92 | > 100
Oc1ccc(N=Nc2ccc(Br)cc2)c(O)c1 | 23.6 µM | 4.82 | 38.7 | 16.7 | 20.7 | 12 | 21.6 | 68.8 | 42.3 | 30.7 | 3.17 µM | 1.91 | 3.86 | 2.81 | 3.61 | 2.64 | 3.85 | 4 | 2.93 | 7.52
CC(C)[C@@]12C[C@@H](OC(=O)C3CO3)[C@@](C)(O1)[C@@H]1CC[C@@H](C)[C@H]1[C@@H]2OC(=O)/C=C/c1ccccc1 (stereo partly specified) | 29.5 µM | > 100 | 50.9 | 87.2 | 27.4 | 42.8 | 30.2 | 33.4 | > 100 | 39.4 | 14 µM | 29 | 18.2 | 24.3 | 13 | 19.1 | 16.5 | 16.6 | 18.8 | 19.2
O=C(Nc1ccc(I)cc1F)c1cc(Br)ccc1O | 5.5 µM | 19.5 | 7.22 | > 100 | 2 | 2.18 | 0.714 | > 100 | 2.54 | 4.29 | 2.19 µM | 1.01 | 1.04 | 0.412 | 0.379 | 0.386 | 0.251 | 0.41 | 0.353 | 0.707
COc1ccc(Nc2ncc(I)c(NCCCNC(=O)C3CCC3)n2)cc1 | 29.2 µM | > 100 | 76.6 | 16.6 | > 100 | 57.1 | 28.7 | > 100 | 79 | 93 | 5.58 µM | 4.96 | 6.48 | 2.39 | 7.39 | 16.8 | 10.1 | 5.26 | 28.4 | 15
COc1cc(CSc2nc3ccc(Cl)cc3c(=O)n2Cc2ccccc2)cc(OC)c1OC | 41.3 µM | > 100 | – | > 100 | 39.1 | 59.4 | 17.1 | > 100 | > 100 | > 100 | 7.62 µM | 3.6 | – | 10.2 | 5.81 | 6.57 | 2.41 | 5.46 | 3.92 | 8.47
CCCCCCOC(=O)CC1=C(C)/C(=C/c2[nH]c(-c3ccc[nH]3)cc2OC)N=C1C | 1.16 µM | 1.56 | 1.64 | 1.23 | 1.44 | 0.23 | – | 2.76 | 0.545 | 1.51 | 0.0829 µM | 0.0256 | 0.0576 | 0.178 | 0.345 | 0.0532 | – | 0.271 | 0.0367 | 0.394
Cc1cccc2c(=O)c3c(sc12)c(NCCCNCCO)nc1ccccc13 | 3.4 µM | 3.31 | 3 | 2.96 | 3.5 | 3.34 | 3.29 | – | 3.5 | 3.54 | 1.75 µM | 1.57 | 1.57 | 1.34 | 1.81 | 1.75 | 1.78 | – | 1.57 | 1.86
CCCCCN(CCCCC)CCC[C@@H](C)[C@H]1CC[C@H]2[C@@H]3[C@H](OCCCN)C[C@@H]4C[C@H](OCCCN)CC[C@]4(C)[C@H]3C[C@H](OCCCN)[C@]12C | 24 µM | 20.5 | – | 15 | 17.7 | 31.3 | 16.2 | 24.3 | 30.3 | 28.6 | 8.26 µM | 4.47 | – | 2.72 | 4.8 | 15.1 | 3.85 | 7.9 | 10 | 13.5
CCn1nc(C2CCN(C(=O)CCO)CC2)nc1-c1cnc(N)c(-c2nnc(C(C)(C)C)o2)n1 | > 100 µM | > 100 | > 100 | > 100 | > 100 | > 100 | 31.3 | > 100 | 0.57 | – | 3.11 µM | 18.2 | 6.69 | 0.245 | 3.77 | 30.9 | 11.5 | > 100 | 0.0731 | –
COc1ccc(C(=O)/C=C/c2cc(-c3ccc(OC)c(OC)c3)n[nH]2)cc1OC | 5.14 µM | 5.52 | – | 53.8 | 6.21 | 5.17 | 2.96 | 4.16 | 6.65 | 5.02 | 1.81 µM | 0.364 | – | 3.13 | 2.59 | 2.46 | 1.58 | 1.67 | 1.36 | 2.16
Clc1cc(Br)ccc1-c1ccc(CNCC2CCNCC2)o1 | 3.06 µM | 3.54 | – | 3.86 | 4.11 | 3.53 | 3.2 | 7.2 | 3.93 | 3.51 | 1.55 µM | 1.58 | – | 1.9 | 2.33 | 1.75 | 1.76 | 2.3 | 1.98 | 1.85
COc1ccc(C)c2sc(N(Cc3cccnc3)C(=O)c3ccc(C#N)cc3)nc12 | > 100 µM | > 100 | – | > 100 | > 100 | – | 93.8 | > 100 | > 100 | > 100 | 56.8 µM | 36.6 | – | 52 | 52.1 | – | 24.4 | 94.7 | 26.1 | 56
CCCN(CCC)c1ccc(/C=N/NC(=O)c2cccnc2)c(C)c1 | 42.2 µM | 52.3 | 37.2 | 39.7 | 28.2 | – | 25.4 | 34.1 | 27.6 | 24.8 | 18.6 µM | 16.4 | 13.5 | 16 | 13 | – | 12.8 | 16.1 | 6.35 | 12.3
Cc1ccc(-c2cc(C(=O)Nc3ccc(S(=O)(=O)N4CCCCC4)cc3)[nH]n2)c(O)c1 | > 100 µM | > 100 | – | > 100 | > 100 | > 100 | > 100 | > 100 | > 100 | > 100 | > 100 µM | 59.6 | – | > 100 | > 100 | > 100 | > 100 | > 100 | > 100 | > 100
O=C1OC2(c3ccc(O)cc3Oc3cc(O)ccc32)c2cccc3cccc1c23 | 81.3 µM | > 100 | – | 57.4 | 54.7 | 48 | 28 | 34.1 | 99.6 | 67.2 | 27 µM | 26.5 | – | 19.1 | 20.5 | 21.4 | 14.6 | 17.5 | 28.6 | 23.6
